Measurements taken from the supplement of paper PMC10307832.

What was measured:
Assay in all cases: relative viability (nuclei count vs DMSO), 5 days (fraction); higher = more cells survive
[1] = compound: Cn1nnc2c(C(N)=O)ncn2c1=O [Temozolomide] + CC1(C)CCC(c2ccc(Cl)cc2)=C(CN2CCN(c3ccc(C(=O)NS(=O)(=O)c4ccc(N[C@H](CCN5CCOCC5)CSc5ccccc5)c(S(=O)(=O)C(F)(F)F)c4)cc3)CC2)C1 [Navitoclax] (partner 0.5 µM)
Outline: (§1)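 Lung cancer cell lines, seeded in 1536-well plates, were treated the following day by pin tool with a single drug or with five library-drug doses (not always all listed) in √10 steps on top of a fixed anchor-drug dose. Cells were fixed and nuclei stained in one step after 5 days, and nuclei were counted. Relative viability is the nuclei count for treated wells divided by that for vehicle wells, reported as medians of duplicate plates.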

[2] = compound: C[C@@H](C(=O)N[C@@H](C1CCCCC1)C(=O)N2CCC[C@H]2C(=O)N[C@@H]3[C@@H](CC4=CC=CC=C34)OCC#CC#CCO[C@@H]5CC6=CC=CC=C6[C@@H]5NC(=O)[C@@H]7CCCN7C(=O)[C@H](C8CCCCC8)NC(=O)[C@H](C)NC)NC [AZD5582] + N=C(N)NC(=N)NCCc1ccccc1 [Phenformin] (partner 250 µM)
Outline: as §1

[3] = compound: C[C@@H](C(=O)N[C@@H](C1CCCCC1)C(=O)N2CCC[C@H]2C(=O)N[C@@H]3[C@@H](CC4=CC=CC=C34)OCC#CC#CCO[C@@H]5CC6=CC=CC=C6[C@@H]5NC(=O)[C@@H]7CCCN7C(=O)[C@H](C8CCCCC8)NC(=O)[C@H](C)NC)NC [AZD5582] + CC(=O)Nc1cccc(-n2c(=O)n(C3CC3)c(=O)c3c(Nc4ccc(I)cc4F)n(C)c(=O)c(C)c32)c1 [Trametinib] (partner 0.02 µM)
Outline: as §1

[4] = compound: C[C@@H](C(=O)N[C@@H](C1CCCCC1)C(=O)N2CCC[C@H]2C(=O)N[C@@H]3[C@@H](CC4=CC=CC=C34)OCC#CC#CCO[C@@H]5CC6=CC=CC=C6[C@@H]5NC(=O)[C@@H]7CCCN7C(=O)[C@H](C8CCCCC8)NC(=O)[C@H](C)NC)NC [AZD5582] + Nc1ncn([C@H]2C[C@H](O)[C@@H](CO)O2)c(=O)n1 [Decitabine] (partner 2 µM)
Outline: as §1

Row | Cell Line | relative viability ([1]; first compound 0.2 µM) | relative viability ([1]; first compound 0.6325 µM) | relative viability ([1]; first compound 2 µM) | relative viability ([1]; first compound 6.325 µM) | relative viability ([1]; first compound 20 µM) | relative viability ([2]; first compound 0.001581 µM) | relative viability ([2]; first compound 0.005 µM) | relative viability ([2]; first compound 0.01581 µM) | relative viability ([2]; first compound 0.05 µM) | relative viability ([3]; first compound 0.001581 µM) | relative viability ([3]; first compound 0.005 µM) | relative viability ([3]; first compound 0.01581 µM) | relative viability ([3]; first compound 0.05 µM) | relative viability ([4]; first compound 0.001581 µM) | relative viability ([4]; first compound 0.005 µM) | relative viability ([4]; first compound 0.01581 µM) | relative viability ([4]; first compound 0.05 µM)
1 | NCI-H2087 | 1.15 | 1.05 | 1.02 | 0.891 | 0.965 | 0.423 | 0.49 | 0.443 | 0.464 | 0.184 | 0.244 | 0.163 | 0.22 | 0.336 | 0.299 | 0.255 | 0.28
2 | NCI-H727 | 0.409 | 0.428 | 0.496 | 0.469 | 0.324 | 0.518 | 1.28 | 0.632 | 0.673 | 0.398 | 0.383 | 0.37 | 0.406 | 0.965 | 0.856 | 0.801 | 0.921
3 | NCI-H520 | 1.13 | 1.09 | 1.15 | 1.12 | 1.01 | 0.451 | 0.539 | 0.528 | 0.53 | 0.605 | 0.784 | 0.791 | 0.708 | 0.504 | 0.515 | 0.509 | 0.557
4 | NCI-H1734 | 0.803 | 0.854 | 0.886 | 0.811 | 0.835 | 0.418 | 0.516 | 0.37 | 0.455 | 0.621 | 0.696 | 0.743 | 0.701 | 0.479 | 0.527 | 0.484 | 0.514
5 | A-427 | 0.971 | 0.923 | 0.949 | 0.596 | 0.592 | 0.265 | 0.322 | 0.248 | 0.206 | 0.568 | 0.608 | 0.71 | 0.566 | 0.496 | 0.582 | 0.573 | 0.53
6 | NCI-H2023 | 1.02 | 1 | 1.13 | 0.985 | 0.997 | 0.387 | 0.409 | 0.348 | 0.408 | 0.421 | 0.525 | 0.595 | 0.36 | 0.217 | 0.2 | 0.243 | 0.204
7 | NCI-H1915 | 0.797 | 0.754 | 0.684 | 0.495 | 0.305 | 0.358 | 0.361 | 0.342 | 0.367 | 0.309 | 0.294 | 0.296 | 0.373 | 0.278 | 0.26 | 0.276 | 0.259
8 | LK-2 | 0.756 | 0.874 | 0.851 | 0.475 | 0.35 | 0.433 | 0.588 | 0.393 | 0.402 | 0.466 | 0.81 | 0.731 | 1.04 | 0.257 | 0.277 | 0.307 | 0.326
9 | NCI-H1755 | 1.07 | 0.982 | 1.01 | 0.971 | 0.727 | 0.578 | 0.666 | 0.502 | 0.576 | 0.761 | 0.843 | 0.802 | 0.9 | 0.709 | 0.761 | 0.694 | 0.725
10 | NCI-H441 | 0.692 | 0.628 | 0.926 | 0.542 | 0.789 | 0.621 | 0.799 |  | 0.674 | 0.508 | 0.636 | 0.385 | 0.34 | 0.211 | 0.23 | 0.21 | 0.225
11 | NCI-H3122 | 1.05 | 1.03 | 1.08 | 1.01 | 0.976 | 0.362 | 0.376 | 0.354 | 0.19 | 0.269 | 0.224 | 0.24 | 0.206 | 0.476 | 0.384 | 0.42 | 0.224
12 | NCI-H1793 |  | 0.358 | 0.415 | 0.506 | 0.3 | 0.295 | 0.404 | 0.306 | 0.264 | 0.464 | 0.536 | 0.463 | 0.557 | 0.487 | 0.607 | 0.473 | 0.53
13 | COR-L 105 | 0.819 | 0.866 | 0.996 | 0.858 | 0.649 | 0.503 | 0.651 | 0.392 | 0.496 | 0.445 | 0.517 | 0.427 | 0.539 | 0.666 | 0.724 | 0.632 | 0.723
14 | NCI-H1993 | 0.823 | 0.893 | 0.889 | 0.879 | 0.804 | 0.535 | 0.464 | 0.483 | 0.532 | 0.455 | 0.505 | 0.493 | 0.526 | 0.634 | 0.7 | 0.603 | 0.613
15 | BEN | 0.0644 | 0.0697 | 0.0579 | 0.0678 | 0.0653 | 0.278 | 0.249 | 0.301 | 0.27 | 0.893 | 1.13 | 1.05 | 1.2 | 0.699 | 0.668 | 0.683 | 0.62
16 | NCI-H2009 | 1.2 | 1.22 | 1.12 | 1.17 | 1.25 | 0.445 | 0.534 | 0.454 | 0.451 | 0.281 | 0.297 | 0.295 | 0.333 | 0.4 | 0.355 | 0.412 | 0.363
17 | NCI-H1792 | 0.852 | 0.773 | 0.655 | 0.577 | 0.616 |  | 0.323 |  | 1.12 | 0.347 | 0.482 | 0.478 | 0.669 | 0.503 | 0.622 | 0.526 | 0.672
18 | PC-14 | 1.07 | 1.01 | 1.06 | 0.956 | 0.928 | 0.556 | 0.5 | 0.353 | 0.511 | 0.404 | 0.44 | 0.722 | 0.397 | 0.12 | 0.165 | 0.205 | 0.116
19 | EKVX | 0.856 | 0.962 | 0.902 | 0.976 | 0.597 | 0.217 | 0.23 | 0.196 | 0.228 | 0.276 | 0.405 | 0.289 | 0.376 | 0.351 | 0.377 | 0.294 | 0.385
